Experimental data published in PubChem BioAssay AID493148 (Sanford-Burnham Center for Chemical Genomics, 2011).
Activity calls are given as the source filed them. No rule for the calls is given here.

Target: Alkaline phosphatase, tissue-nonspecific isozyme (Homo sapiens) (UniProt P05186)
Test: inhibition of tissue-nonspecific alkaline phosphatase – biochemical, selectivity assay for mouse IAP inhibitor project, SAR follow-up (AID 493148)
Conditions: purified enzyme, CDP-Star luminescence, 30 min

Sequence of Alkaline phosphatase, tissue-nonspecific isozyme (Homo sapiens) (P05186 whole entry, looked up): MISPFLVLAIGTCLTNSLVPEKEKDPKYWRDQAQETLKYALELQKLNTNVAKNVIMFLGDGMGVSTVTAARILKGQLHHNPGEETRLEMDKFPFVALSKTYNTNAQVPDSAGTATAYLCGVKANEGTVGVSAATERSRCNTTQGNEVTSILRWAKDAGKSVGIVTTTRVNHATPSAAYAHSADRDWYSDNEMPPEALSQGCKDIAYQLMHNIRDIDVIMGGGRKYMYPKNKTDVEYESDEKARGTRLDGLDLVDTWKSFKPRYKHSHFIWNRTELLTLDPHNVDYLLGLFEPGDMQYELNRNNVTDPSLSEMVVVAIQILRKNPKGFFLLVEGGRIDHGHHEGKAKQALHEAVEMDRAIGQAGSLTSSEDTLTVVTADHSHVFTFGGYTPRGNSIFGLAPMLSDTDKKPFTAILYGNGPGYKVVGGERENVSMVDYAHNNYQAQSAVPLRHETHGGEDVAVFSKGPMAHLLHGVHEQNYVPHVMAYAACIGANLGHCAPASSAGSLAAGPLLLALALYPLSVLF

Row | SMILES | IC50
1 | CCn1cc(CN2CCC(C(=O)Nc3cccc(-c4cccc(F)c4)c3)CC2)cn1 | > 100 µM (inactive)
2 | CC1(c2ccccc2)CC(C)(C)N(C(=S)Nc2ccccc2)c2ccccc21 (stereo not drawn) | > 100 µM (inactive)
3 | O=C(CN1C(=O)/C(=C/c2ccco2)SC1=S)Nc1cccc(C(=O)O)c1 | > 100 µM (inactive)
4 | S=C(NCCC(c1ccccc1)c1ccccc1)Nc1ccc(Nc2ccccc2)cc1 | > 100 µM (inactive)
5 | CCn1cc(CN2CCC(C(=O)Nc3cccc(-c4cccc(Cl)c4)c3)CC2)cn1 | > 100 µM (inactive)
6 | Cn1cc(CN2CCC(C(=O)Nc3cccc(-c4cccc(Cl)c4)c3)CC2)cn1 | > 100 µM (inactive)
7 | O=C(Nc1cccc(-c2cccc(F)c2)c1)C1CCN(Cc2ccc(CO)o2)CC1 | > 100 µM (inactive)
8 | Fc1ccccc1NC(=S)NCCC(c1ccccc1)c1ccccc1 | > 100 µM (inactive)
9 | COc1cccc(-c2cccc(NC(=O)C3CCN(Cc4ccc(C)o4)CC3)c2)c1 | > 100 µM (inactive)
10 | FC(F)(F)c1cccc(NC(=S)NCCC(c2ccccc2)c2ccccc2)c1 | > 100 µM (inactive)
11 | COc1ccc(Cl)cc1NC(=S)NCCC(c1ccccc1)c1ccccc1 | > 100 µM (inactive)
12 | Fc1ccc(NC(=S)NCCC(c2ccccc2)c2ccccc2)cc1Cl | > 100 µM (inactive)
13 | O=C(Nc1cccc(-c2cccc(Cl)c2)c1)C1CCN(Cc2ccc(CO)o2)CC1 | > 100 µM (inactive)
14 | Cc1cc(Cl)ccc1NC(=S)NCCC(c1ccccc1)c1ccccc1 | > 100 µM (inactive)
15 | Cc1cc(=O)oc2cc(NC(=S)NCCC(c3ccccc3)c3ccccc3)ccc12 | > 100 µM (inactive)
16 | CCOC(=O)c1ccc(NC(=S)NCCC(c2ccccc2)c2ccccc2)cc1 | > 100 µM (inactive)
17 | COCc1ccc(CN2CCC(C(=O)Nc3cccc(-c4cccc(Cl)c4)c3)CC2)o1 | > 100 µM (inactive)
18 | CC(C)n1cc(CN2CCC(C(=O)Nc3cccc(-c4cccc(Cl)c4)c3)CC2)cn1 | > 100 µM (inactive)
19 | CN(C)S(=O)(=O)c1cccc(NC(=S)NCCC(c2ccccc2)c2ccccc2)c1 | > 100 µM (inactive)
20 | Cc1ccc(NC(=S)NCCC(c2ccccc2)c2ccccc2)cc1C | > 100 µM (inactive)
21 | O=[N+]([O-])c1ccc(NC(=S)NCCC(c2ccccc2)c2ccccc2)cc1 | > 100 µM (inactive)
22 | CN1CCC(=NNC(=O)c2cc(O)c(O)c(O)c2)CC1 | > 100 µM (inactive)
23 | C=CCn1cc(CN2CCC(C(=O)Nc3cccc(-c4cccc(Cl)c4)c3)CC2)c(C)n1 | > 100 µM (inactive)

Row | SMILES | IC50
24 | Cc1ccc(NC(=S)NCCC(c2ccccc2)c2ccccc2)cc1 | > 100 µM (inactive)
25 | COc1cccc(NC(=S)NCCC(c2ccccc2)c2ccccc2)c1 | > 100 µM (inactive)
26 | Cc1ccc(NC(=O)CCNS(=O)(=O)c2ccc3[nH]c(=O)oc3c2)cc1C | > 100 µM (inactive)
27 | O=S(=O)(Nc1ncccn1)c1ccc(NC(=S)NCCC(c2ccccc2)c2ccccc2)cc1 | > 100 µM (inactive)
28 | Cc1cc(C)cc(NC(=S)NCCC(c2ccccc2)c2ccccc2)c1 | > 100 µM (inactive)
29 | Cc1nn(C)c(Cl)c1CN1CCC(C(=O)Nc2cccc(-c3cccc(F)c3)c2)CC1 | > 100 µM (inactive)
30 | Cc1c(Cl)cccc1Nc1nc(-c2ccc(O)c(O)c2)cs1 | > 100 µM (inactive)
31 | Cc1nn(C(C)C)c(C)c1CN1CCC(C(=O)Nc2cccc(-c3cccc(F)c3)c2)CC1 | > 100 µM (inactive)
32 | S=C(NCCC(c1ccccc1)c1ccccc1)Nc1ccc(Cl)cc1Cl | > 100 µM (inactive)
33 | CCn1nc(C)c(CN2CCC(C(=O)Nc3cccc(-c4cccc(F)c4)c3)CC2)c1C | > 100 µM (inactive)
34 | CC(C)N1CCC(=NNC(=O)c2cc(O)c(O)c(O)c2)CC1 | > 100 µM (inactive)
35 | COc1ccc(Cl)cc1Nc1nc(-c2ccc(O)c(O)c2)cs1 | > 100 µM (inactive)
36 | S=C(NCCC(c1ccccc1)c1ccccc1)Nc1ccc(Cl)cc1 | > 100 µM (inactive)
37 | Cc1c(Cl)cccc1NC(=S)NCCC(c1ccccc1)c1ccccc1 | > 100 µM (inactive)
38 | CCn1ncc(CN2CCC(C(=O)Nc3cccc(-c4cccc(F)c4)c3)CC2)c1C | > 100 µM (inactive)
39 | O=C(Nc1cccc(-c2cccc(Cl)c2)c1)C1CCN(C2CCC2)CC1 | > 100 µM (inactive)
40 | CC(C)n1cc(CN2CCC(C(=O)Nc3cccc(-c4cccc(F)c4)c3)CC2)cn1 | > 100 µM (inactive)
41 | Cn1cc(CN2CCC(C(=O)Nc3cccc(-c4cccc(F)c4)c3)CC2)cn1 | > 100 µM (inactive)
42 | Cc1cccc(NC(=S)NCCC(c2ccccc2)c2ccccc2)c1C | > 100 µM (inactive)
43 | NS(=O)(=O)c1ccc(NC(=S)NCCC(c2ccccc2)c2ccccc2)cc1 | > 100 µM (inactive)
44 | Oc1ccc(-c2csc(Nc3cccc4ccccc34)n2)cc1O | 6.4 µM
45 | Cc1ccc(CN2CCC(C(=O)Nc3cccc(-c4cccc(F)c4)c3)CC2)o1 | > 100 µM (inactive)
46 | Cc1ccc(C)c(NC(=S)NCCC(c2ccccc2)c2ccccc2)c1 | > 100 µM (inactive)

Row | SMILES | IC50
47 | S=C(NCCC(c1ccccc1)c1ccccc1)Nc1cccc(Cl)c1 | > 100 µM (inactive)
48 | CCn1c(SCC(=O)c2ccc(O)c(O)c2)nnc1-c1ccccc1OC | > 100 µM (inactive)
49 | CCn1cc(CN2CCC(C(=O)Nc3cccc(-c4cccc(OC)c4)c3)CC2)cn1 | > 100 µM (inactive)
50 | C=CCn1cc(CN2CCC(C(=O)Nc3cccc(-c4cccc(F)c4)c3)CC2)c(C)n1 | > 100 µM (inactive)
51 | COc1cc(NC(=S)NCCC(c2ccccc2)c2ccccc2)cc(OC)c1 | > 100 µM (inactive)
52 | CCn1cc(CN2CCC(C(=O)Nc3cccc(-c4cccc(OC)c4)c3)CC2)c(C)n1 | > 100 µM (inactive)
53 | COc1ccc(NC(=S)NCCC(c2ccccc2)c2ccccc2)cc1 | > 100 µM (inactive)
54 | COc1cccc(-c2cccc(NC(=O)C3CCN(Cc4ccc(CO)o4)CC3)c2)c1 | > 100 µM (inactive)
55 | CCN1CCN(S(=O)(=O)c2ccc3[nH]c(=O)oc3c2)CC1 | > 100 µM (inactive)
56 | CC(C)c1ccccc1NC(=S)NCCC(c1ccccc1)c1ccccc1 | > 100 µM (inactive)
57 | Cc1cc(NC(=O)CCNS(=O)(=O)c2ccc3[nH]c(=O)oc3c2)ccc1Br | > 100 µM (inactive)
58 | S=C(NCCC(c1ccccc1)c1ccccc1)Nc1ccc(Cl)c(Cl)c1 | > 100 µM (inactive)
59 | CCc1ccccc1Nc1nc(-c2ccc(O)c(O)c2)cs1 | 11.4 µM
60 | COc1ccc(C(=O)CSc2n[nH]c(-c3ccccc3)n2)cc1OC | 34.4 µM
61 | O=C(CN1C(=O)/C(=C\c2ccco2)SC1=S)Nc1ccccc1C(=O)O | > 100 µM (inactive)
62 | O=C(CN1C(=O)/C(=C/c2ccco2)SC1=S)Nc1ccc(C(=O)O)cc1 | > 100 µM (inactive)
63 | Cc1c(CN2CCC(C(=O)Nc3cccc(-c4cccc(Cl)c4)c3)CC2)cnn1C | > 100 µM (inactive)
64 | COc1cc([N+](=O)[O-])ccc1NC(=S)NCCC(c1ccccc1)c1ccccc1 | > 100 µM (inactive)
65 | CCCn1ncc(CN2CCC(C(=O)Nc3cccc(-c4cccc(F)c4)c3)CC2)c1C | > 100 µM (inactive)
66 | S=C(NCCC(c1ccccc1)c1ccccc1)Nc1ccccc1 | > 100 µM (inactive)
67 | COC(=O)c1cc(NC(=S)NCCC(c2ccccc2)c2ccccc2)cc(C(=O)OC)c1 | > 100 µM (inactive)
68 | CCn1nc(C)c(CN2CCC(C(=O)Nc3cccc(-c4cccc(Cl)c4)c3)CC2)c1C | > 100 µM (inactive)
